29 compounds from patent publication US10202351B2, “Pyrazolyl derivatives as pest control agents” (BAYER ANIMAL HEALTH GMBH, priority 2015, dated 2019) can be followed below.

Common to all, as to format: in vivo
Assay [1] deals with Boophilus microplus. Description: Boophilus microplus injection test. The following applies: application rate 20 μg/animal, after 7 days, laying of fertile eggs. As to the method: Solvent: dimethyl sulfoxide […] The animals are transferred into dishes and kept in a climate-controlled room. Efficacy is assessed after 7 days by laying of fertile eggs. Eggs which are not visibly fertile are stored in a climate-controlled cabinet until the larvae hatch after about 42 days.

Assay [2] concerns Ctenocephalides felis. Description: Ctenocephalides felis oral test. The following applies: application rate 100 ppm in citrated cattle blood, kill after 2 days. The text has this:
Solvent: dimethyl sulfoxide […] Dilution with citrated cattle blood gives the desired concentration. About 20 unfed adult cat fleas (Ctenocephalides felis) are placed into a chamber which is closed at the top and bottom with gauze. A metal cylinder whose bottom end is closed with parafilm is placed onto the chamber. The cylinder contains the blood/active ingredient formulation, which can be imbibed by the fleas through the parafilm membrane.

Assay [3] deals with Lucilia cuprina. Briefly: Lucilia cuprina test. The following applies: application rate 100 ppm, L1 larvae, kill after 2 days. The protocol: (§1) Solvent: dimethyl sulfoxide
(§2) To produce a suitable preparation of active compound, 10 mg of active compound are mixed with 0.5 ml of dimethyl sulfoxide, and the concentrate is diluted with water to the desired concentration.
About 20 L1 larvae of the Australian sheep blowfly (Lucilia cuprina) are transferred into a test vessel containing minced horsemeat and the active compound formulation of the desired concentration.
After 2 days, the kill in % is determined. 100% means that all the larvae have been killed; 0% means that no larvae have been killed.

Assay [4] concerns Musca domestica. Briefly: Musca domestica test. The note with it: application rate 100 ppm, adult houseflies, kill after 2 days. The protocol:
as §1, §2
Vessels containing a sponge treated with sugar solution and the active ingredient formulation of the desired concentration are populated with 10 adult houseflies (Musca domestica)).
After 2 days, the kill in % is determined. 100% means that all of the flies have been killed; 0% means that none of the flies have been killed.

The test system of assay [5] is Phaedon cochleariae. Briefly: Phaedon cochleariae spray test. The note with it: application rate 100 g/ha, larvae on Chinese cabbage leaf discs, after 7 days. As to the method: Solvent: 78.0 parts by weight of acetone • • 1.5 parts by weight of dimethylformamide Emulsifier: alkylaryl polyglycol ether […] To produce further test concentrations, the formulation is diluted with emulsifier-containing water. Discs of Chinese cabbage leaves (Brassica pekinensis) are sprayed with an active ingredient formulation of the desired concentration and, after drying, populated with larvae of the mustard beetle (Phaedon cochleariae).

The test system of assay [6] is Spodoptera frugiperda. Briefly: Spodoptera frugiperda spray test. The following applies: application rate 100 g/ha, caterpillars on maize leaf discs, after 7 days. The protocol:
Solvent: 78.0 parts by weight of acetone • • 1.5 parts by weight of dimethylformamide Emulsifier: alkylaryl polyglycol ether […] To produce further test concentrations, the formulation is diluted with emulsifier-containing water. Leaf discs of maize (Zea mays) are sprayed with an active compound formulation of the desired concentration and, after drying, populated with caterpillars of the armyworm (Spodoptera frugiperda).

`Cc1cc(C(F)(C(F)(F)F)C(F)(F)F)cc(C(F)(F)F)c1-n1cc(-c2cccc(NC(=O)c3ccsc3)c2F)cn1` [Example 75]: the efficacy worked out at 100% in assay [1], 95% in assay [2] and 80% in assay [3].
Turning to `Cc1cc(C(=O)Nc2cc(-c3cnn(-c4c(C)cc(C(F)(C(F)(F)F)C(F)(F)F)cc4C(F)(F)F)c3)ccc2F)ccc1F` [Example 53], the efficacy in assay [1], in assay [2] and in assay [4] was 100% throughout.
Turning to `COc1cc(C(=O)Nc2cc(-c3cnn(-c4c(C)cc(C(F)(C(F)(F)F)C(F)(F)F)cc4C(F)(F)F)c3)ccc2F)ccc1C#N` [Example 35], the efficacy in assay [5] and in assay [6] was 100% each time.
As to `COc1cc(C(=O)Nc2cc(-c3cnn(-c4c(C)cc(C(F)(C(F)(F)F)C(F)(F)F)cc4C(F)(F)F)c3)ccc2F)ccc1C` [Example 47], the efficacy stood at 100% in assay [1] and 80% in assay [2].
Take `COc1cc(C(=O)Nc2cc(-c3cnn(-c4c(C)cc(C(F)(C(F)(F)F)C(F)(F)F)cc4C(F)(F)F)c3)ccc2F)ccc1F` [Example 28]: the efficacy in assay [5] stood at 100%.
With `COc1ccc(C(=O)Nc2cccc(-c3cnn(-c4c(C)cc(C(F)(C(F)(F)F)C(F)(F)F)cc4C(F)(F)F)c3)c2F)cc1F` [Example 72], the efficacy worked out at 100% in assay [1], 95% in assay [2], 100% in assay [3] and 100% in assay [5].
As to `COc1cccc(C(=O)Nc2cccc(-c3cnn(-c4c(C)cc(C(F)(C(F)(F)F)C(F)(F)F)cc4C(F)(F)F)c3)c2F)c1` [Example 73], the efficacy in assay [1], in assay [2], in assay [3], in assay [5] and in assay [6] was 100% each time.
As to `Cc1cc(C(F)(C(F)(F)F)C(F)(F)F)cc(C(F)(F)F)c1-n1cc(-c2cccc(NC(=O)c3ccc(Cl)nc3)c2F)cn1` [Example 70], the efficacy in assay [1], in assay [2], in assay [3], in assay [5], in assay [6] and in assay [4] was 100% each time.
For `COc1cc(C(=O)Nc2cccc(-c3cnn(-c4c(C)cc(C(F)(C(F)(F)F)C(F)(F)F)cc4C(F)(F)F)c3)c2F)ccc1C#N` [Example 74], the efficacy in assay [1], in assay [3], in assay [5] and in assay [6] was 100% throughout.
Regarding `Cc1ccc(C(=O)Nc2cc(-c3cnn(-c4c(C)cc(C(F)(C(F)(F)F)C(F)(F)F)cc4C(F)(F)F)c3)ccc2F)cc1C` [Example 52], the efficacy in assay [1] and in assay [4] was 100% throughout.
Regarding `COc1ccc(C(=O)Nc2cc(-c3cnn(-c4c(C)cc(C(F)(C(F)(F)F)C(F)(F)F)cc4C(F)(F)F)c3)ccc2F)cc1F` [Example 55], the efficacy in assay [1] was determined as 100%; in assay [2], 100%; in assay [3], 80%; in assay [5] it was 100%.
For the compound `COc1cc(C(=O)Nc2ccc(F)c(-c3cnn(-c4c(C)cc(C(F)(C(F)(F)F)C(F)(F)F)cc4C(F)(F)F)c3)c2)ccc1F` [Example 2-5], the efficacy in assay [1] amounted to 100%.
For the compound `Cc1cc(C(F)(C(F)(F)F)C(F)(F)F)cc(C)c1-n1cc(-c2ccc(N(C)C)c(NC(=O)c3ccc(F)cc3)c2)cn1` [Example 21], the efficacy in assay [1], in assay [2] and in assay [6] was 100% each time.
As for `COc1cc(C(=O)Nc2cccc(-c3cnn(-c4c(C)cc(C(F)(C(F)(F)F)C(F)(F)F)cc4C(F)(F)F)c3)c2F)ccc1F` [Example 71], the efficacy in assay [1], in assay [2], in assay [5] and in assay [6] was 100% throughout.
`CCOc1cc(C(=O)Nc2cc(-c3cnn(-c4c(C)cc(C(F)(C(F)(F)F)C(F)(F)F)cc4C(F)(F)F)c3)ccc2F)ccc1F` [Example 29]: the efficacy in assay [1] is recorded as 100%; in assay [2], 80%.
`Cc1cc(C(F)(C(F)(F)F)C(F)(F)F)cc(C(F)(F)F)c1-n1cc(-c2ccc(F)c(N(C)C(=O)c3ccc(F)nc3)c2F)cn1` [Example 41]: the efficacy in assay [1] came out at 100%; in assay [2], 100%; in assay [3], 100%; in assay [5], 100%; in assay [6], 83%; in assay [4], 100%.
As to `COc1cc(C(=O)Nc2c(F)ccc(-c3cnn(-c4c(C)cc(C(F)(C(F)(F)F)C(F)(F)F)cc4C(F)(F)F)c3)c2F)ccc1F` [Example 27], the efficacy in assay [1] is given as 100%; in assay [2], 100%; in assay [3], 90%.
For `Cc1cc(C(F)(C(F)(F)F)C(F)(F)F)cc(C(F)(F)F)c1-n1cc(-c2cc(NC(=O)c3cnco3)ccc2F)cn1` [Example 2-11], the efficacy in assay [1], in assay [2], in assay [3], in assay [5] and in assay [6] was 100% in each case.
For `Cc1cc(C(F)(C(F)(F)F)C(F)(F)F)cc(C(F)(F)F)c1-n1cc(-c2cccc(NC(=O)c3cccs3)c2F)cn1` [Example 76], the efficacy in assay [1], in assay [2], in assay [3], in assay [5] and in assay [6] was 100% each time.
As for `COc1cc(C(=O)Nc2ccc(F)c(-c3cnn(-c4c(C)cc(C(F)(C(F)(F)F)C(F)(F)F)cc4C(F)(F)F)c3)c2)ccc1C#N` [Example 2-8], the efficacy in assay [1] was found to be 100%; in assay [3] it was 90%; in assay [5], 83%.
With `Cc1cc(C(F)(C(F)(F)F)C(F)(F)F)cc(C(F)(F)F)c1-n1cc(-c2ccc(N(C)C)c(NC(=O)C3(C)CC3)c2)cn1` [Example 36], the efficacy in assay [1], in assay [2], in assay [3], in assay [5] and in assay [6] was 100% throughout.
As for `Cc1cc(C(F)(C(F)(F)F)C(F)(F)F)cc(C(F)(F)F)c1-n1cc(-c2ccc(F)c(NC(=O)c3ccc(Cl)nc3)c2)cn1` [Example 49], the efficacy in assay [2], in assay [3], in assay [5], in assay [6] and in assay [4] was 100% throughout.
As to `Cc1cc(C(F)(C(F)(F)F)C(F)(F)F)cc(C(F)(F)F)c1-n1cc(-c2ccc(F)c(NC(=O)c3cccs3)c2F)cn1` [Example 26], the efficacy in assay [1], in assay [2], in assay [3], in assay [5] and in assay [6] was 100% in each case.
Regarding `Cc1cc(C(F)(C(F)(F)F)C(F)(F)F)cc(C(F)(F)F)c1-n1cc(-c2ccc(N(C)C)c(NC(=O)c3ccsc3)c2)cn1` [Example 37], the efficacy in assay [1], in assay [2], in assay [3], in assay [5] and in assay [6] was 100% each time.
For `Cc1cc(C(F)(C(F)(F)F)C(F)(F)F)cc(C(F)(F)F)c1-n1cc(-c2ccc(F)c(NC(=O)c3ccc(Cl)c(F)c3)c2)cn1` [Example 56], the efficacy in assay [1], in assay [2] and in assay [3] was 100% throughout.
`COc1ccc(C(=O)Nc2ccc(F)c(-c3cnn(-c4c(C)cc(C(F)(C(F)(F)F)C(F)(F)F)cc4C(F)(F)F)c3)c2)cc1F` [Example 2-6] gave an efficacy in assay [1] of 80%.
Still for that read-out and setting: in the case of `Cc1cc(C(F)(C(F)(F)F)C(F)(F)F)cc(C(F)(F)F)c1-n1cc(-c2cc(NC(=O)c3ccccc3)ccc2F)cn1` [Example 2-10] it was 100%.
`Cc1ncc(-c2cnn(-c3c(Cl)cc(C(F)(C(F)(F)F)C(F)(F)F)cc3Cl)c2)cc1NC(=O)c1ccncc1` [Example 18]: the efficacy in assay [5] was 83%; in assay [6] it was 100%.
Turning to `Cc1cc(C(F)(C(F)(F)F)C(F)(F)F)cc(C(F)(F)F)c1-n1cc(-c2cc(NC(=O)c3ccsc3)ccc2F)cn1` [Example 2-9], the efficacy is on record as 100% in assay [1], 95% in assay [2] and 100% in assay [3].
